Data from patent publication US7807678B2, “Peptidomimetics of biologically active metallopeptides” (Palatin Technologies, Inc., priority 2001, dated 2010).

Key:
[1] = molecular target: T1, MC1-R (B-16 mouse melanoma cells) (Mus musculus, UniProt Q01727); experiment: Competitive inhibition binding assay, 125I-NDP-α-MSH, MC1-R; conditions: for Inhibition at 1 μM MC1-R: 1 μM compound, inhibition of 125I-NDP-α-MSH binding, mean of triplicates, results less than 0% reported as 0%
T1 construct: B-16 mouse melanoma cells (containing MC1-R); endogenous in cells; host or cells: B-16 mouse melanoma cells
Experimental: (§1) The competitive inhibition binding assay was conducted using membranes prepared from hMC3-R, hMC4-R, hMC5-R, and B-16 mouse melanoma cells (containing MC1-R) using 0.4 nM ^125I-NDP-α-MSH (New England Nuclear, Boston, Mass., USA) in 50 mM HEPES buffer containing 1 mM MgCl2, 2 mM CaCl2, and 5 mM KCl, at pH 7.2. The assay tube also contained a chosen concentration of the test peptidomimetic of this invention, generally 1 μM, for determining its efficacy in inhibiting the binding of ^125I-NDP-α-MSH to its receptor.
(§2) Incubation was for 90 minutes at room temperature, after which the assay mixture was filtered and the membranes washed three times with ice cold buffer. The filter was dried and counted in a gamma counter for remaining radioactivity bound to the membranes. 100% specific binding was defined as the difference in radioactivity (cpm) bound to cell membranes in the absence and presence of 1 μM α-MSH. […] Each assay was conducted in triplicate and the actual mean values are described.

[2] = molecular target: MC5-R (Homo sapiens, UniProt P33032); experiment: Competitive inhibition binding assay, 125I-NDP-α-MSH, MC5-R; set-up: expressed in transfected cells; conditions: 1 μM compound; inhibition of 125I-NDP-α-MSH binding; mean of triplicates; results less than 0% reported as 0%
Experimental: as §1, §2

[3] = molecular target: MC3-R (Homo sapiens, UniProt P41968); experiment: Competitive inhibition binding assay, 125I-NDP-α-MSH, MC3-R; set-up: expressed in transfected cells; conditions: for Inhibition at 1 μM MC3-R: 1 μM compound, inhibition of 125I-NDP-α-MSH binding, mean of triplicates, results less than 0% reported as 0%
Experimental: as §1, §2

[4] = molecular target: MC4-R (Homo sapiens, UniProt P32245); experiment: Competitive inhibition binding assay, 125I-NDP-α-MSH, MC4-R; set-up: expressed in transfected cells; conditions: for Inhibition at 1 μM MC4-R: 1 μM compound, inhibition of 125I-NDP-α-MSH binding, mean of triplicates, results less than 0% reported as 0%
Experimental: as §1, §2

Chain of MC5-R (P33032 whole entry): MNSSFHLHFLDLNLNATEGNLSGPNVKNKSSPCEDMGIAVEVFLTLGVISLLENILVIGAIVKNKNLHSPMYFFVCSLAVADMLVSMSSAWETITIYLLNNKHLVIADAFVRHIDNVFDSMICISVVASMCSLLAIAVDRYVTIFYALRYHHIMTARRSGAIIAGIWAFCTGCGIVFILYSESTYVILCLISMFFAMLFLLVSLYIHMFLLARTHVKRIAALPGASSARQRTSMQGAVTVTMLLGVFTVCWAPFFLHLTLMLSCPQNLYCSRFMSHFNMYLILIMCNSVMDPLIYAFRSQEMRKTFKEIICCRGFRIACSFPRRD
T1 sequence (Q01727 whole entry): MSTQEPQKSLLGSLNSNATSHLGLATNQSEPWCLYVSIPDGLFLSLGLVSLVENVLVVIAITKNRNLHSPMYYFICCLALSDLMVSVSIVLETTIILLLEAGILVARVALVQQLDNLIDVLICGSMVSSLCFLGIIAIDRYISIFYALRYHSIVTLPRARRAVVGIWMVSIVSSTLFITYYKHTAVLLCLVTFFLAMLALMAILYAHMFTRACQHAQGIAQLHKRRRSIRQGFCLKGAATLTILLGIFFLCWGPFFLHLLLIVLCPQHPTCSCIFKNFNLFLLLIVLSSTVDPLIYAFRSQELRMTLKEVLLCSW
Chain of MC4-R (P32245 whole entry): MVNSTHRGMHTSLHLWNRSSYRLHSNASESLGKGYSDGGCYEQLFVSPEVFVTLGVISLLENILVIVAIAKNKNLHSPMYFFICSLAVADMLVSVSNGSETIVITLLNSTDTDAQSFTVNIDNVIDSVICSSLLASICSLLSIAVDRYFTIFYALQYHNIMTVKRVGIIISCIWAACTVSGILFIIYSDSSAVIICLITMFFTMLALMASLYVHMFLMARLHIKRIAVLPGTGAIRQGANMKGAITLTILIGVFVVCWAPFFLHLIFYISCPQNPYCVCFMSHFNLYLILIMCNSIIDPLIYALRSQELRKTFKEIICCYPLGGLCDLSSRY
Chain of MC3-R (P41968 whole entry): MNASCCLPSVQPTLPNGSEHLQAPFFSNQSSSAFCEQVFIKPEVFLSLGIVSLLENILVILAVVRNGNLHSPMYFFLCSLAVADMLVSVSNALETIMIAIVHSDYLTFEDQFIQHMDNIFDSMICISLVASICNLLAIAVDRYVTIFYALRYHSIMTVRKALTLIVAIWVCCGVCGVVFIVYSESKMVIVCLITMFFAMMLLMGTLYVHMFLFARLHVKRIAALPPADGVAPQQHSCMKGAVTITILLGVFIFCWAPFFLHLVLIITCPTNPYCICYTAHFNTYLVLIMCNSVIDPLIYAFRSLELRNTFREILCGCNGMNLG

| SMILES | Inhibition at 1 μM MC1-R [1] [%] | Inhibition at 1 μM MC5-R [2] [%] | Inhibition at 1 μM MC3-R [3] [%] | Inhibition at 1 μM MC4-R [4] [%] | inhibition at 1 µM [1] [%] | inhibition at 1 µM [3] [%] | inhibition at 1 µM [4] [%] |
| --- | --- | --- | --- | --- | --- | --- | --- |
| CCCCCCC(=O)N[C@@H](COCc1ccccc1)C(=O)N[C@H](Cc1ccccc1Cl)C(=O)N1CCN(CCc2c[nH]c3ccccc23)C(=O)[C@@H]1CCCCN [Example 11] | 96 | 82 | 51 | 99 |  |  |  |
| NCCCC[C@H]1C(=O)N(CCc2ccccc2)CCN1C(=O)[C@@H](Cc1ccc(Cl)cc1)NC(=O)[C@@H](N)COCc1ccccc1 [Example 12] | 46 | 14 | 39 | 40 |  |  |  |
| NCCCC[C@H]1C(=O)N(CCc2ccccc2)CCN1C(=O)[C@@H](Cc1ccc(Cl)cc1)NC(=O)[C@@H]1Cc2ccccc2CN1 [Example 13] | 68 | 16 | 21 | 66 |  |  |  |
| N=C(N)NCCC[C@H]1C(=O)N(CCc2c[nH]c3ccccc23)CCN1C(=O)[C@@H](Cc1ccc(Cl)cc1)NC(=O)[C@@H](N)COCc1ccc(Cl)cc1 [Example 15] | 81 | 90 | 64 | 94 |  |  |  |
| N=C(N)NCCC[C@H]1C(=O)N(CCc2c[nH]c3ccccc23)CCN1C(=O)[C@@H](Cc1ccc(Cl)cc1)NC(=O)[C@@H](N)COCc1ccccc1 [Example 16] | 86 | 81 | 55 | 96 |  |  |  |
| N=C(N)NCCC[C@H]1C(=O)N(CCc2c[nH]c3ccccc23)CCN1C(=O)[C@@H](Cc1ccccc1Cl)NC(=O)[C@@H]1Cc2ccccc2CN1 [Example 18] | 95 | 62 | 50 | 99 |  |  |  |
| N=C(N)NCCC[C@H]1C(=O)N(CCc2c[nH]c3ccccc23)CCN1C(=O)[C@@H](Cc1ccccc1Cl)NC(=O)[C@@H]1C[C@@H](OCc2ccccc2)CN1 [Example 19] | 91 | 85 | 59 | 99 |  |  |  |
| N=C(N)NCCC[C@H]1C(=O)N(CCc2c[nH]c3ccccc23)CCN1C(=O)[C@@H](Cc1ccccc1Cl)NC(=O)[C@@H](N)COCc1ccccc1 [Example 20] | 87 | 71 | 40 | 98 |  |  |  |
| N=C(N)NCCCC1C(=O)N(CCc2c[nH]c3ccccc23)CCN1C(=O)C(Cc1ccccc1Cl)NC(=O)C1CCC(c2ccccc2)N1 (stereo not shown) [Example 21] | 62 | 19 | 22 | 83 |  |  |  |
| NCCCC[C@H]1C(=O)N(CCOc2ccc3ccccc3c2)CCN1C(=O)[C@@H](Cc1ccc(Cl)cc1)NC(=O)[C@@H](N)COCc1ccccc1 [Example 29] | 64 | 72 | 21 | 64 |  |  |  |
| NCCCC[C@H]1C(=O)N(CCOc2ccc3ccccc3c2)CCN1C(=O)[C@@H](Cc1ccc(Cl)cc1)NC(=O)[C@@H]1Cc2ccccc2CN1 [Example 30] | 88 | 65 | 35 | 88 |  |  |  |
| NCCCC[C@H]1C(=O)N(CCc2ccc3ccccc3c2)CCN1C(=O)[C@H](N)Cc1ccc(Cl)cc1Cl [Example 35] | 9 | 4 | 3 | 62 |  |  |  |
| CC(=O)NCCCC1C(=O)N(CCc2ccc3ccccc3c2)CCN1C(=O)C(Cc1ccc(Cl)cc1Cl)NC(=O)C(N)COCc1ccccc1 (stereo not shown) [Example 42] | 13 | 30 | 10 | 61 |  |  |  |
| COC(=O)NCCC[C@H]1C(=O)N(CCc2ccc3ccccc3c2)CCN1C(=O)[C@@H](Cc1ccc(Cl)cc1Cl)NC(=O)[C@@H](N)COCc1ccccc1 [Example 43] | 1 | 20 | 0 | 43 |  |  |  |
| CNC(=O)NCCC[C@H]1C(=O)N(CCc2ccc3ccccc3c2)CCN1C(=O)[C@@H](Cc1ccc(Cl)cc1Cl)NC(=O)[C@@H](N)COCc1ccccc1 [Example 45] | 5 | 31 | 11 | 72 |  |  |  |
| N[C@@H](COCc1ccccc1)C(=O)N[C@H](Cc1ccc(Cl)cc1Cl)C(=O)N1CCN(CCc2ccc3ccccc3c2)C(=O)[C@@H]1CCCNS(N)(=O)=O [Example 46] | 0 | 25 | 12 | 60 |  |  |  |
| CS(=O)(=O)NCCC[C@H]1C(=O)N(CCc2ccc3ccccc3c2)CCN1C(=O)[C@@H](Cc1ccc(Cl)cc1Cl)NC(=O)[C@@H](N)COCc1ccccc1 [Example 47] | 0 | 14 | 9 | 40 |  |  |  |
| NCCC[C@H]1C(=O)N(CCc2ccc3ccccc3c2)CCN1C(=O)[C@H](N)Cc1ccc(Cl)cc1Cl [Example 49] | 2 | 1 | 0 | 43 |  |  |  |
| NC(=O)CC[C@H]1C(=O)N(CCc2ccc3ccccc3c2)CCN1C(=O)[C@H](N)Cc1ccc(Cl)cc1Cl [Example 50] | 0 | 0 | 0 | 0 |  |  |  |
| NCC[C@H]1C(=O)N(CCc2ccc3ccccc3c2)CCN1C(=O)[C@H](N)Cc1ccc(Cl)cc1Cl [Example 54] | 28 | 23 | 11 | 55 |  |  |  |
| N[C@H](Cc1ccc(Cl)cc1Cl)C(=O)N1CCN(CCc2ccc3ccccc3c2)C(=O)[C@@H]1CCNC1=NCCN1 [Example 55] | 24 | 27 | 14 | 68 |  |  |  |
| N=C(N)NCC[C@H]1C(=O)N(CCc2ccc3ccccc3c2)CCN1C(=O)[C@H](N)Cc1ccc(Cl)cc1Cl [Example 56] | 21 | 24 | 13 | 81 |  |  |  |
| NC(=O)NCC[C@H]1C(=O)N(CCc2ccc3ccccc3c2)CCN1C(=O)[C@H](N)Cc1ccc(Cl)cc1Cl [Example 57] | 11 | 5 | 0 | 9 |  |  |  |
| N[C@H](Cc1ccc(Cl)cc1Cl)C(=O)N1CCN(CCc2ccc3ccccc3c2)C(=O)[C@@H]1CCCn1cncn1 [Example 58] | 7 | 3 | 0 | 0 |  |  |  |
| NCCCC[C@H]1C(=O)N(CCc2ccc3ccccc3c2)CCN1C(=O)[C@H](N)Cc1ccc2ccccc2c1 [Example 59] | 26 | 30 | 14 | 72 |  |  |  |
| [2H]N[C@@H](Cc1cnc[nH]1)C(=O)N[C@@H](Cc1ccccc1)C(=O)N1C2CC[C@H](COc3ccc4ccccc4c3)N2C(=O)[C@@H]1CCCCN (stereo partly shown) [Example 111] |  |  |  |  | 94 | 9 | 10 |
